Article PMC9965520, “An Efficient Peptidomics Screening for Exogenous Substrates and Inhibitory Peptides of the Dipeptidase ACE from Milk Hydrolysate” (Pharmaceutics, 2023)
No end group written: not given here.

Molecular target: T1, ACE (Oryctolagus cuniculus, UniProt P12822)
T1 sequence (P12822 34-1310): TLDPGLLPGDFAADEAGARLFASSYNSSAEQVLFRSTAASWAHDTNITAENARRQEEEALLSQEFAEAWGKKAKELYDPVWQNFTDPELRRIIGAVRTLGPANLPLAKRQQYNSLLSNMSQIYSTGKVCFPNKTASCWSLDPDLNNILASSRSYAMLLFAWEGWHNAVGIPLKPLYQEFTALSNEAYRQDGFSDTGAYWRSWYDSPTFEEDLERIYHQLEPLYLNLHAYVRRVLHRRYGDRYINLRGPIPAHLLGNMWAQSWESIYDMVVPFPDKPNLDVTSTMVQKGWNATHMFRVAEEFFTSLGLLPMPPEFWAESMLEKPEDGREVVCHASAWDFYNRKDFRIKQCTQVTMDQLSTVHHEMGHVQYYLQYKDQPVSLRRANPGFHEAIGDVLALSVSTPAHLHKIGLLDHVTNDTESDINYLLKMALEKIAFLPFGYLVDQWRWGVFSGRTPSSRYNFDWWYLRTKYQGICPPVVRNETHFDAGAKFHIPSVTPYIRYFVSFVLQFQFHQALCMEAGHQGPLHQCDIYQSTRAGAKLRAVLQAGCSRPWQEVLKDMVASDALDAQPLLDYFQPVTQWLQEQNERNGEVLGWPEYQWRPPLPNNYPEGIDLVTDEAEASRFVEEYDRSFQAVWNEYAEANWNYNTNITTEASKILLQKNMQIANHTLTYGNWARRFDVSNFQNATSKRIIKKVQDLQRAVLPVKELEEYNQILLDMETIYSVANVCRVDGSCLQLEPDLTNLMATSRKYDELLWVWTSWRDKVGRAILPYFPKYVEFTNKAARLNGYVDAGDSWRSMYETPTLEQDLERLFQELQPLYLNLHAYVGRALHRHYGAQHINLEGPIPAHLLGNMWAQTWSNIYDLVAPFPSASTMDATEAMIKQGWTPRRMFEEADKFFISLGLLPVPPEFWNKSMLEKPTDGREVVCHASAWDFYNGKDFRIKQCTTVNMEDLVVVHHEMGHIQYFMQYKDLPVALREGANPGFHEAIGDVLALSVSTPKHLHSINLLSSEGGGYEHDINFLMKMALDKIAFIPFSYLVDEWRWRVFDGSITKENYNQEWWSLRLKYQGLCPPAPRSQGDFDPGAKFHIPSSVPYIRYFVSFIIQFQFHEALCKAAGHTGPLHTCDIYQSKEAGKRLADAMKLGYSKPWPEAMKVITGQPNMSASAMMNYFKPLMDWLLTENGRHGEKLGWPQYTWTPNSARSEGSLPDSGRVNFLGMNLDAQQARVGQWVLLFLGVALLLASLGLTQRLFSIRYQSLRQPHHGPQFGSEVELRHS
Assay: not given
Conditions: pH 8.3

With “DRVYIHPFHL [Ang-I, angiotensin I, reference compound]” the “Hydrolysis of Ang-I by ACE without exogenous substrates” value was “hydrolyzed almost completely”.

Tested on: ACE
Assay: not given
Conditions: 3 h of incubation with ACE; ref 21 (Forghani et al.); cited from earlier work
Method: To investigate the sequence conservation of the exogenous substrates, the identified substrates listed on Table 1 were analyzed using Weblogo (https://weblogo.berkeley.edu/). WebLogo is the software designed to analyze the frequency of residues that appeared at various positions in a sequence library. The font size of each letter (residue) represents the frequency appearance of each residue at a certain position. The order from the most frequent to the least frequent is arranged from the top to the bottom for each residue. The chemical properties of amino acid residues are classified by ...

In the case of CRQNTLGHNTQTSIAQ, the “peptide loss on incubation with ACE” value is listed as 7%.

Molecular target: T1, ACE
Assay: ACE pre-incubation of milk hydrolysate peptide libraries, stable-isotope dimethyl labeling and LC-MS/MS (D/H ratio)
Format: in vitro ADME, rabbit
Parameters: ACE (EC 3.4.15.1, 1 unit) from rabbit lungs; purchased Sigma Chemical Co. (St. Louis, MO, USA); host or cells: rabbit lungs (tissue-derived enzyme)
Conditions: milk hydrolysate peptide library (<3 kDa); ACE-treated (0.05 mU/μL ACE, borate buffer, 37 °C, 3 h: 1.5 h static + 1.5 h 200 rpm; D-labeled) versus untreated (H-labeled) peptide; intensity ratio in LC-MS; <1 = hydrolysed by ACE
Method: The peptide libraries (200 μg) dissolved in borate buffer were equally divided into two parts, one was without any treatment (control group); the other part (experimental group) was incubated with 0.05 mU/μL ACE at 37℃ for 1.5 h statically, followed by gentle shaking at 200 rpm for another 1.5 h, and then the ACE reaction was quenched using 60 μL of 1N HCl. After lyophilization, both samples were redissolved in 100 μL of 0.1M sodium acetate and modified using stable-isotope dimethyl labeling according to the previous study with slight modifications. Briefly, the control group (without ACE incubation) had 4 μL of formaldehyde (37% solution in H2O) and 1 M NaBH3CN (10 μL) added to it; the experimental group had 20% formaldehyde-d2 (8 μL) and 1M NaBH3CN (10 μL) added to it. After 1h, 5 μL of ammonia (28% solution in H2O) were added individually to both groups to stop the reaction. The experimental group and the control group were combined and desalted using the PepClean™C18 spin column. The resulting peptide mixture was lyophilized and kept at −20 °C prior to LC-MS/MS analysis. Formaldehyde is known to the state of California to cause cancer; special caution was taken including the use of surgical gloves and a fume hood when formaldehyde was handled.
The combined mixture re-dissolved in 5% ACN containing 0.1% formic acid was separated using an Ultimate 3000 RSLC system (Dionex, Sunnyvale, CA, USA) coupled with a C18 column (Acclaim PepMap RSLC, 75 μm × 150 mm, Thermo Scientific, Waltham, Middlesex, MA, USA) and analyzed with a Thermo Q-ExactiveTM mass spectrometer (Thermo Scientific Inc., Waltham, Middlesex, MA, USA). The elution solution was composed of mobile phase A (0.1% formic acid in water) and B (0.1% formic acid in 95% acetonitrile). The elution gradient was arranged as follows: (i) isocratic elution using 1% B in the first 5.5 min for sample loading, (ii) linear gradient from 1% to 60% B in the next 39.5 min, (iii) linear gradient from 60% to 80% B in the following 10 min, and finally (iv) isocratic elution using 1% solution B for 10 min. The flow rate applied in the LC separation was maintained at 250 µL/min. The separated peptides were analyzed and quantified using Q-ExactiveTM mass spectrometry which was operated in the data-dependent mode and switched automatically between MS and HCD-MS2. A full MS scan was carried out in a 100 and 1500 m/z range, and the 14 ions of the highest intensities were selected for MS/MS scans. The RAW data were converted to the MGF file format followed by database-assisted sequencing with PEAKS DB using PEAKS Studio X (Bioinformatics Solutions Inc., Waterloo, ON, Canada). The parameters used for peptide identification were listed as follows: (1) Database: UniProt_SwissProt (Bos taurus); (2) Enzyme: pepsin, trypsin, α-chymotrypsin, or GI (the combination of these three proteases); (3) Type of enzyme: Unspecific; (4) Instrument: Orbitrap; (5) Parent mass error tolerance: 20 ppm; (6) Fragment mass error tolerance: 0.6 Da; (7) Variable modifications: Dimethyl (K), Dimethyl (N-term), Dimethyl:2H(4) (K), and Dimethyl:2H(4) (N-term) were used for identification and quantitative analysis. The sequence identified through the database was validated by manually matching with the MS/MS spectrum in the raw data. In addition to MS/MS analysis coupled with PEAKS studio, the ACE’s substrate candidates were further confirmed using the synthetic peptides with corresponding sequences by comparison with their LC retention times, m/z values, and MS/MS spectra. The relative abundances of hydrogen (H) and deuterium (D) labeled peptides were quantified based on the peak areas in their corresponding selective ion chromatograms (SIC). The D/H ratio of identified peptide with the same sequence was further examined by their relative signal intensities in MS spectrum. Theoretically, the D/H ratio of the isobaric pair should stay at 1 if the peptide will not react with ACE. […]

Compared with LRPVAAEIY [LRPVAAEIY], VVPPFLQPEVM [VVPPFLQPEVM] is higher in “D/H Ratio” value: 0.65 for the first, 0.80 for the second.

Going from DMPIQAFL [DMPIQAFL] to FPQYLQY [FPQYLQY], the “D/H Ratio” value falls from 0.59 to 0.12.

Going from MFPPQSVL [MFPPQSVL] to HQPHQPLPPTVM [HQPHQPLPPTVM], the “D/H Ratio” value rises from 0.21 to 0.40.

Going from FALPQYLK [FALPQYLK] to HPHPHLSF [HPHPHLSF], the “D/H Ratio” value falls from 0.94 to 0.15.

Going from IPPLTQT [IPPLTQT] to ALNEINQFY [ALNEINQFY], the “D/H Ratio” value rises from 0.47 to 0.84.

Compared with YPVEPFTESQSL [YPVEPFTESQSL], SIVHPSY [SIVHPSY] is lower in “D/H Ratio” value: 0.76 for the first, 0.18 for the second.

Going from SAYPGQITSN [SAYPGQITSN] to TTMPLW [TTMPLW], the “D/H Ratio” value falls from 0.65 to 0.15.

Going from ALPMHIR [ALPMHIR] to QLDAYPSGAW [QLDAYPSGAW], the “D/H Ratio” value rises from 0.15 to 0.47.

Compared with AVPYPQR [AVPYPQR], DMPIQAF [DMPIQAF] is higher in “D/H Ratio” value: 0.44 for the first, 0.55 for the second.

First: SRYPSYGLN [SRYPSYGLN]
Second: QVSLNSGY [QVSLNSGY]
The “D/H Ratio” value of the first is higher: 0.81 for the first, 0.56 for the second.

First: INNQFLPYPYY [INNQFLPYPYY]
Second: HQGLPQEVLNENLLR [HQGLPQEVLNENLLR]
The “D/H Ratio” value of the first is lower: 0.33 for the first, 0.76 for the second.

Compared with VAPFPEVFG [VAPFPEVFG], KVIPYVRY [KVIPYVRY] is lower in “D/H Ratio” value: 0.83 for the first, 0.66 for the second.

With NAVPITPTLNR [NAVPITPTLNR] the “D/H Ratio” value was 0.61.

Molecular target: T1, ACE
Assay: ACE hydrolysis of synthetic substrate candidates monitored by LC-MS at different incubation times
Format: in vitro ADME, rabbit
Parameters: ACE (EC 3.4.15.1, 1 unit) from rabbit lungs; purchased Sigma Chemical Co. (St. Louis, MO, USA); host or cells: rabbit lungs (tissue-derived enzyme)
Conditions: synthetic peptide incubated with ACE, 37 °C, 3 h, LC-MS/MS
Method: To confirm the reactivity of the identified peptide candidates towards ACE, the synthetic peptides were individually mixed with ACE and incubated at 37 °C for 3 h. The remaining peptide substrate and the resulting product were analyzed using LC-MS/MS. Meanwhile, the degradation rate of each peptide was monitored every 30 min using LC-MS. The percentage of the remaining substrate (RS%) at each time point was calculated as As/(As + Ap) 100%. In which, As is the selective ion chromatogram (SIC) peak area of remaining substrate and Ap is the peak area of the resulting product. The RS% was further compared with the D/H ratio obtained in Section 2.4.

In the case of NIPPLTQTPV [NV-10], the “Hydrolysis of synthetic peptide by ACE (result in words)” value (“Hydrolysis of synthetic peptide by ACE” below) is reported as “avoid ACE’s hydrolysis”.
In the case of VRSPAQILQ [VRSPAQILQ], the “Hydrolysis of synthetic peptide by ACE” value is reported as “survive from ACE’s hydrolysis”.
With IASGEPTSTPTTE [IE-13] the “Hydrolysis of synthetic peptide by ACE” value was “avoid ACE’s hydrolysis”.
With LVYPFPGPIHN [LVYPFPGPIHN] the “Hydrolysis of synthetic peptide by ACE” value was “retard the second cleavage”.
In the case of LVYPFPGPLHNSL [LVYPFPGPLHNSL], the “Hydrolysis of synthetic peptide by ACE” value is reported as “readily hydrolyzed by ACE”.
With LYQGPIVL [LYQGPIVL] the “Hydrolysis of synthetic peptide by ACE” value was “survive from ACE’s hydrolysis”.
